In one assay the target is Human GLP-1 receptors (Homo sapiens, UniProt P43220). In words: GLP-1 receptor activation assay (CRE-luciferase reporter, CHO-K1).
For another assay, the target named is Human glucagon receptors (Homo sapiens, UniProt P47871). The assay is described as follows: Glucagon receptor activation assay (CRE-luciferase reporter, CHO-K1).
Assay [1] can be described thus: Body weight loss efficacy by 5-day repeated injection vs Liraglutide and MEDI0382, obese mice (Exp. Ex. 10). In kind it is in vivo, C57BL/6 mouse. The note with it: 30 nmol/kg s.c. once a day x 4. On the procedure:
Male laboratory mice (C57BL/6 mouse) were given diet containing high fat. The mice with high-fat-diet-induced obesity were grouped by body weight before beginning the experiment. […] Body weight and food intake was measured once per day, at the same time each day.

The structures appear in SMILES notation. *1 amine or outer side, *2 acyl side, *3 side chain or, on linkers, in order; H or OH if unused. Where a SMILES comes first, the peptide text is derived from it. Side-chain parts run from the residue outwards. [ ]: non-standard residue; d: D form. The star is where a group is joined. γGlu = O=C(O)[C@H](CCC(=O)[*:2])N[*:1]; Stearoyl = CCCCCCCCCCCCCCCCCC(=O)*; AEEA = NCCOCCOCC(=O)O; Aib = CC(C)(N)C(=O)O Where only a bound is given, the exact number is not on record here.

Chain of Human glucagon receptors (P47871 26-477): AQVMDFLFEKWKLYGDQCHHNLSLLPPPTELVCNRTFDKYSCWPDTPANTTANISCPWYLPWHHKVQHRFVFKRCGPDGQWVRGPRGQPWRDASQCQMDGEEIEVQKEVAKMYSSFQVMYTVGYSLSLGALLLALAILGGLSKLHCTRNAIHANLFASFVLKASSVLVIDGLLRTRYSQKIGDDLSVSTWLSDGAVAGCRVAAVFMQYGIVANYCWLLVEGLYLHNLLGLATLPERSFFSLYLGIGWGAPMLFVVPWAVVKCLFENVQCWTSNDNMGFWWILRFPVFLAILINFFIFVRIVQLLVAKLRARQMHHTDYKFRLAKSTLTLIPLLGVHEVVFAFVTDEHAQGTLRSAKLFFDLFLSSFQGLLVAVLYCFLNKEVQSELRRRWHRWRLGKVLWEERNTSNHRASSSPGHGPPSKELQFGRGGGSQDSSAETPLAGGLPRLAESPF
Chain of Human GLP-1 receptors (P43220 24-463): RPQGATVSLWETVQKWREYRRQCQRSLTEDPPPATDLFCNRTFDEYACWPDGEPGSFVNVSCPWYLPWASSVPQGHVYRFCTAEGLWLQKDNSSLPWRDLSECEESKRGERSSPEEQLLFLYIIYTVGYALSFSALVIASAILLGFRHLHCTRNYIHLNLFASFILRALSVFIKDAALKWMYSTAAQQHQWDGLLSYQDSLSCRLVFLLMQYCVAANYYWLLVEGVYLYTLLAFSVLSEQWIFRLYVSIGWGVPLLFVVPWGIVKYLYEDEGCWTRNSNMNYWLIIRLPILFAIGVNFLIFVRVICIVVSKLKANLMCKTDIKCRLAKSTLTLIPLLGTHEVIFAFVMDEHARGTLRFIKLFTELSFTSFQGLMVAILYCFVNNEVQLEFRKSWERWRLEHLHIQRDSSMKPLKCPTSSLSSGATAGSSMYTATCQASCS

Broadly, the EC50 is the concentration that produces a half-maximal response. On to `CCCCCCCCCCCCCCCCCC(=O)N[C@@H](CCC(=O)NCCOCCOCC(=O)NCCOCCOCC(=O)NCCCC[C@H](NC(=O)[C@H](CO)NC(=O)[C@@H](NC(=O)[C@H](Cc1ccccc1)NC(=O)[C@@H](NC(=O)CNC(=O)[C@H](CCC(N)=O)NC(=O)C(C)(C)NC(=O)[C@@H](N)Cc1c[nH]cn1)[C@@H](C)O)[C@@H](C)O)C(=O)N[C@@H](Cc1ccc(O)cc1)C(=O)N[C@@H](CO)C(=O)N[C@@H](CCCCN)C(=O)N[C@@H](Cc1ccc(O)cc1)C(=O)N[C@@H](CC(C)C)C(=O)N[C@@H](CC(=O)O)C(=O)NC(C)(C)C(=O)N[C@@H](CCCNC(=N)N)C(=O)N[C@@H](CCCNC(=N)N)C(=O)N[C@@H](C)C(=O)N[C@@H](CCC(N)=O)C(=O)N[C@@H](CC(=O)O)C(=O)N[C@@H](Cc1ccccc1)C(=O)N[C@H](C(=O)N[C@@H](CCC(N)=O)C(=O)N[C@@H](Cc1c[nH]c2ccccc12)C(=O)N[C@@H](CC(C)C)C(=O)N[C@@H](CCSC)C(=O)N[C@@H](CC(N)=O)C(=O)N[C@H](C(=O)N[C@@H](CCCCN)C(=O)O)[C@@H](C)O)C(C)C)C(=O)O` [Compound 40] (H-H[Aib]QGTFTSK([AEEA-AEEA-γGlu-Stearoyl])YSKYLD[Aib]RRAQDFVQWLMNTK-OH), for which the figures for the EC50 at Human GLP-1 receptors and at Human glucagon receptors were 0.1 to 1 nM and > 1 nM, respectively.
For `CSCC[C@H](NC(=O)[C@H](CC(C)C)NC(=O)[C@H](Cc1c[nH]c2ccccc12)NC(=O)[C@H](CCC(N)=O)NC(=O)[C@@H](NC(=O)[C@H](Cc1ccccc1)NC(=O)[C@H](CC(=O)O)NC(=O)[C@H](CCC(N)=O)NC(=O)[C@H](C)NC(=O)[C@H](CCCNC(=N)N)NC(=O)[C@H](CCCNC(=N)N)NC(=O)C(C)(C)NC(=O)[C@H](CC(=O)O)NC(=O)[C@H](CC(C)C)NC(=O)[C@H](Cc1ccc(O)cc1)NC(=O)[C@H](CCCCN)NC(=O)[C@H](CO)NC(=O)[C@H](CCCCNC(=O)COCCOCCNC(=O)COCCOCCNC(=O)CC[C@H](NC(=O)CCCCCCCCCCCCCCC(=O)O)C(=O)O)NC(=O)[C@H](CC(=O)O)NC(=O)[C@H](CO)NC(=O)[C@@H](NC(=O)[C@H](Cc1ccccc1)NC(=O)[C@@H](NC(=O)CNC(=O)[C@H](CCC(N)=O)NC(=O)C(C)(C)NC(=O)[C@@H](N)Cc1c[nH]cn1)[C@@H](C)O)[C@@H](C)O)C(C)C)C(=O)N[C@@H](CC(N)=O)C(=O)N[C@H](C(=O)N[C@@H](CCCCN)C(=O)O)[C@@H](C)O` [Compound 42] the same measures were 0.1 to 1 nM and > 1 nM.
For `CSCC[C@H](NC(=O)[C@H](CC(C)C)NC(=O)[C@H](Cc1c[nH]c2ccccc12)NC(=O)[C@H](CCC(N)=O)NC(=O)[C@@H](NC(=O)[C@H](Cc1ccccc1)NC(=O)[C@H](CC(=O)O)NC(=O)[C@H](CCC(N)=O)NC(=O)[C@H](C)NC(=O)[C@H](CCCNC(=N)N)NC(=O)[C@H](CCCNC(=N)N)NC(=O)C(C)(C)NC(=O)[C@H](CC(=O)O)NC(=O)[C@H](CC(C)C)NC(=O)[C@H](Cc1ccc(O)cc1)NC(=O)[C@H](CCCCN)NC(=O)[C@H](CO)NC(=O)[C@H](CCCCNC(=O)COCCOCCNC(=O)COCCOCCNC(=O)CC[C@H](NC(=O)CCCCCCCCCCCCCCCCC(=O)O)C(=O)O)NC(=O)[C@H](CC(=O)O)NC(=O)[C@H](CO)NC(=O)[C@@H](NC(=O)[C@H](Cc1ccccc1)NC(=O)[C@@H](NC(=O)CNC(=O)[C@H](CCC(N)=O)NC(=O)C(C)(C)NC(=O)[C@@H](N)Cc1c[nH]cn1)[C@@H](C)O)[C@@H](C)O)C(C)C)C(=O)N[C@@H](CC(N)=O)C(=O)N[C@H](C(=O)N[C@@H](CCCCN)C(=O)O)[C@@H](C)O` [Compound 43] the same measures were > 1 nM and > 1 nM.
For `CSCC[C@H](NC(=O)[C@H](CC(C)C)NC(=O)[C@H](Cc1c[nH]c2ccccc12)NC(=O)[C@H](CCC(N)=O)NC(=O)[C@@H](NC(=O)[C@H](Cc1ccccc1)NC(=O)[C@H](CC(=O)O)NC(=O)[C@H](CCC(N)=O)NC(=O)[C@H](C)NC(=O)[C@H](CCCNC(=N)N)NC(=O)[C@H](CCCNC(=N)N)NC(=O)C(C)(C)NC(=O)[C@H](CC(=O)O)NC(=O)[C@H](CC(C)C)NC(=O)[C@H](Cc1ccc(O)cc1)NC(=O)[C@H](CCCCN)NC(=O)[C@H](CO)NC(=O)[C@H](CCCCNC(=O)COCCOCCNC(=O)COCCOCCNC(=O)CC[C@H](NC(=O)CCCCCCCCCCCCCCCCCCC(=O)O)C(=O)O)NC(=O)[C@H](CC(=O)O)NC(=O)[C@H](CO)NC(=O)[C@@H](NC(=O)[C@H](Cc1ccccc1)NC(=O)[C@@H](NC(=O)CNC(=O)[C@H](CCC(N)=O)NC(=O)C(C)(C)NC(=O)[C@@H](N)Cc1c[nH]cn1)[C@@H](C)O)[C@@H](C)O)C(C)C)C(=O)N[C@@H](CC(N)=O)C(=O)N[C@H](C(=O)N[C@@H](CCCCN)C(=O)O)[C@@H](C)O` [Compound 44] the same measures were 0.1 to 1 nM and > 1 nM.
For the compound `CSCC[C@H](NC(=O)[C@H](CC(C)C)NC(=O)[C@H](Cc1c[nH]c2ccccc12)NC(=O)[C@H](CCC(N)=O)NC(=O)[C@@H](NC(=O)[C@H](Cc1ccccc1)NC(=O)[C@H](CC(=O)O)NC(=O)[C@H](CCC(N)=O)NC(=O)[C@H](C)NC(=O)[C@H](CCCNC(=N)N)NC(=O)[C@H](CCCNC(=N)N)NC(=O)C(C)(C)NC(=O)[C@H](CC(=O)O)NC(=O)[C@H](CC(C)C)NC(=O)[C@H](Cc1ccc(O)cc1)NC(=O)[C@H](CCCCN)NC(=O)[C@H](CO)NC(=O)[C@H](CCCCNC(=O)COCCOCCNC(=O)COCCOCCNC(=O)CC[C@H](NC(=O)CCCCCCCCCCCCCCC(=O)NCC(=O)O)C(=O)O)NC(=O)[C@H](CC(=O)O)NC(=O)[C@H](CO)NC(=O)[C@@H](NC(=O)[C@H](Cc1ccccc1)NC(=O)[C@@H](NC(=O)CNC(=O)[C@H](CCC(N)=O)NC(=O)C(C)(C)NC(=O)[C@@H](N)Cc1c[nH]cn1)[C@@H](C)O)[C@@H](C)O)C(C)C)C(=O)N[C@@H](CC(N)=O)C(=O)N[C@H](C(=O)N[C@@H](CCCCN)C(=O)O)[C@@H](C)O` [Compound 45], the EC50 at Human GLP-1 receptors and on Human glucagon receptors was 0.1 to 1 nM each time.
In the case of `CSCC[C@H](NC(=O)[C@H](CC(C)C)NC(=O)[C@H](Cc1c[nH]c2ccccc12)NC(=O)[C@H](CCC(N)=O)NC(=O)[C@@H](NC(=O)[C@H](Cc1ccccc1)NC(=O)[C@H](CC(=O)O)NC(=O)[C@H](CCC(N)=O)NC(=O)[C@H](C)NC(=O)[C@H](CCCNC(=N)N)NC(=O)[C@H](CCCNC(=N)N)NC(=O)C(C)(C)NC(=O)[C@H](CC(=O)O)NC(=O)[C@H](CC(C)C)NC(=O)[C@H](Cc1ccc(O)cc1)NC(=O)[C@H](CCCCN)NC(=O)[C@H](CO)NC(=O)[C@H](CCCCNC(=O)COCCOCCNC(=O)COCCOCCNC(=O)CC[C@H](NC(=O)CCCCCCCCCCCCCCC(=O)N[C@H](C(=O)O)C(C)C)C(=O)O)NC(=O)[C@H](CC(=O)O)NC(=O)[C@H](CO)NC(=O)[C@@H](NC(=O)[C@H](Cc1ccccc1)NC(=O)[C@@H](NC(=O)CNC(=O)[C@H](CCC(N)=O)NC(=O)C(C)(C)NC(=O)[C@@H](N)Cc1c[nH]cn1)[C@@H](C)O)[C@@H](C)O)C(C)C)C(=O)N[C@@H](CC(N)=O)C(=O)N[C@H](C(=O)N[C@@H](CCCCN)C(=O)O)[C@@H](C)O` [Compound 46], the EC50 on Human GLP-1 receptors and on Human glucagon receptors was 0.1 to 1 nM each time.
Regarding `CSCC[C@H](NC(=O)[C@H](CC(C)C)NC(=O)[C@H](Cc1c[nH]c2ccccc12)NC(=O)[C@H](CCC(N)=O)NC(=O)[C@@H](NC(=O)[C@H](Cc1ccccc1)NC(=O)[C@H](CCC(=O)O)NC(=O)[C@@H]1CCCCNC(=O)CC[C@H](NC(=O)[C@H](CC(=O)O)NC(=O)[C@H](CC(C)C)NC(=O)[C@H](Cc2ccc(O)cc2)NC(=O)[C@H](CCCCN)NC(=O)[C@H](CO)NC(=O)[C@H](Cc2ccc(O)cc2)NC(=O)[C@H](CC(=O)O)NC(=O)[C@H](CO)NC(=O)[C@@H](NC(=O)[C@H](Cc2ccccc2)NC(=O)[C@@H](NC(=O)CNC(=O)[C@H](CCC(N)=O)NC(=O)C(C)(C)NC(=O)[C@@H](N)Cc2c[nH]cn2)[C@@H](C)O)[C@@H](C)O)C(=O)N[C@@H](CCCCN)C(=O)N[C@@H](CCCNC(=N)N)C(=O)N[C@@H](C)C(=O)N1)C(C)C)C(=O)N[C@@H](CC(N)=O)C(=O)N[C@H](C(=O)N[C@@H](CCCCN)C(=O)N[C@@H](CS)C(=O)O)[C@@H](C)O` [Compound 47, reference compound], the EC50 at Human GLP-1 receptors is < 0.01 nM; at Human glucagon receptors, 0.01 to 0.1 nM.
Take `CCCCCCCCCCCCCCCC(=O)N[C@@H](CCC(=O)NCCCC[C@H](NC(=O)[C@H](CC(=O)O)NC(=O)[C@H](CO)NC(=O)[C@@H](NC(=O)[C@H](Cc1ccccc1)NC(=O)[C@@H](NC(=O)CNC(=O)[C@H](CCC(N)=O)NC(=O)[C@H](CO)NC(=O)[C@@H](N)Cc1c[nH]cn1)[C@@H](C)O)[C@@H](C)O)C(=O)N[C@@H](CO)C(=O)N[C@@H](CCC(=O)O)C(=O)N[C@@H](Cc1ccc(O)cc1)C(=O)N[C@@H](CC(C)C)C(=O)N[C@@H](CC(=O)O)C(=O)N[C@@H](CO)C(=O)N[C@@H](CCC(=O)O)C(=O)N[C@@H](CCCNC(=N)N)C(=O)N[C@@H](C)C(=O)N[C@@H](CCCNC(=N)N)C(=O)N[C@@H](CC(=O)O)C(=O)N[C@@H](Cc1ccccc1)C(=O)N[C@H](C(=O)N[C@@H](C)C(=O)N[C@@H](Cc1c[nH]c2ccccc12)C(=O)N[C@@H](CC(C)C)C(=O)N[C@@H](CCC(=O)O)C(=O)N[C@@H](C)C(=O)NCC(=O)NCC(=O)O)C(C)C)C(=O)O` [MEDI0382, reference compound]: the “body weight loss from baseline” value in assay [1] stood at 8.0%. Moreover, the half-maximal effective concentration (EC50) on Human GLP-1 receptors was < 0.01 nM; at Human glucagon receptors it was 0.01 to 0.1 nM.
